Test results taken from patent US9956171B2, “Liquid inhalation formulation comprising RPL554” (VERONA PHARMA PLC, priority 2014, dated 2018).

Experiment: Particle size distribution of micronized RPL554 by laser diffraction (Malvern Spraytec)
Type: physicochemical
Excerpt: The technique used to measure the Dv50 value is typically laser diffraction. For instance, the RPL554 particles typically have a particle size distribution with a Dv50 value of from about 0.2 μm to about 5 μm as measured by laser diffraction. The particle size distribution analysis can be performed by laser diffraction using the Malvern Spraytec in conjunction with a wet dispersion cell. Typically, the instrument parameters for the Malvern Spraytec are as follows: • particle—standard opaque particle; • refractive index Particle—1.50; • refractive index (imaginary)—0.50; • density of particle—1.00; • refractive index of dispersant—1.33; • controller unit—1000 RPM; • measurement type—timed; • initial sampling time—30 s; • obscuration—20%-30%; • dispersant—1% Polysorbate 20 in deionised water.
The particle size distribution of a sample of micronized RPL554 suitable for use in nebulized formulations was evaluated using laser diffraction. The particle size distribution analysis was performed by laser diffraction using the Malvern Spraytec in conjunction with a wet dispersion cell.

Dv10: 0.69 μm
Dv50: 1.35 μm
Dv90: 2.5 μm
Structure (SMILES): COc1cc2c(cc1OC)-c1c/c(=N\c3c(C)cc(C)cc3C)n(CCNC(N)=O)c(=O)n1CC2 [RPL554, 9,10-Dimethoxy-2-(2,4,6-trimethylphenylimino)-3-(N-carbamoyl-2-aminoethyl)-3,4,6,7-tetrahydro-2H-pyrimido[6,1-a]isoquinolin-4-one]
